Columns and labels:
[1] = system: white blood cells contained in a whole blood sample; test: MPO-releasing effects of various surfactants on whole blood, ELISA (Examples 3 to 5); assay type: cell-based, human; conditions: 60 minutes on ice
Description: 10 ml of healthy human whole blood was collected using a 28 G winged intravenous injection needle (manufactured and sold by Terumo Corporation, Japan), and immediately mixed with 10 mg of EDTA-2K (manufactured and sold by Dojin Laboratories, Japan), and the resultant EDTA-containing whole blood sample was subjected to the below-described various measurements within 1 hour from the blood collection.
500 μl of the blood was put in a 2-ml Eppendorf tube, and 500 μl of a 1% (w/v) aqueous surfactant solution was added to the tube, and the resultant mixture was stirred for 2 seconds by a Vortex mixer. Subsequently, the mixture was allowed to stand for 60 minutes on ice to thereby lyze the white blood cells. After the lysis of the white blood cells, 100 μl of the mixture was taken out and added to 900 μl of a PBS solution containing dissolved therein 1% BSA (trade name: “Sigma fraction V”, manufactured and sold under the brand of SIGMA™, U.S.A.). The resultant mixture was stirred by a Vortex mixer, and then 10 μl of the mixture was taken out and diluted 2,000-fold with 1% BSA/PBS solution. The resultant diluted mixture was subjected to a measurement by ELISA.
The outline of the ELISA is as follows. A 5 μg/ml PBS solution of an anti-MPO antibody was put into the wells of a Nunc Immuno Plate (manufactured and sold by Nalge Nunc International, Denmark) in an amount of 100 μl per well. The solution in each well was sealed and subjected to a reaction for 18 hours at 4° C. thereby immobilizing the primary antibody. The wells were washed with a washing solution (0.05% Tween™ 20/PBS) and then subjected to blocking for 1 hour at room temperature by using 200 μl of a blocking solution (1% BSA/PBS), and then washed twice with the washing solution. […] The wells were washed 5 times with a washing solution, and 100 μl of a just-prepared TMB solution (manufactured and sold by Kirkegaad & Perry Laboratories, U.S.A.) was added thereto to effect a color reaction. 2 Minutes after the start of the color reaction, 100 μl of a 1 N sulfuric acid solution (manufactured and sold by Nacalai Tesque, Inc., Japan) was added to the wells to thereby terminate the reaction. Then, the absorbance at 450 nm was measured by means of a plate reader (manufactured and sold by Bio-Rad Laboratories, U.S.A.).
With respect to the measurement of the MPO concentration of the sample, MPO (manufactured and sold by Elastin Products Co., INC., U.S.A.) was added to the sample so that the final concentration of the added MPO became 5 ng/ml or 10 ng/ml, and the resultant mixture was measured with respect to the MPO concentration. From the obtained value of MPO concentration, a calibration curve for each sample was obtained. The obtained calibration curve was corrected, based on its relationship with a calibration curve obtained with respect to a standard MPO solution, and the corrected calibration curve of each sample was used to determine the MPO concentration of the whole blood. The measurement was conducted 3 times, and a mean value±standard deviation was obtained.

[2] = system: white blood cells contained in the whole blood; test: Concentration of surfactant and release amount of MPO in whole blood, ELISA (Example 2); assay type: cell-based, human; conditions: 60 minutes on ice, mean ± SD of 3
Description: 10 ml of healthy human whole blood was collected and immediately mixed with 10 mg of EDTA-2K (manufactured and sold by Dojin Laboratories, Japan), and the resultant EDTA-containing whole blood sample was subjected to the below-described various measurements within 1 hour from the blood collection.
500 μl of the blood was put in a 2-ml Eppendorf tube, and 500 μl of an aqueous surfactant solution having a surfactant concentration of 0.1, 0.2, 0.4, 0.6, 1, 2, 4, 10 or 20% (w/v) was added to the tube, and the resultant mixture was stirred for 2 seconds by a Vortex mixer. Subsequently, the mixture was allowed to stand for 60 minutes on ice to thereby lyze the white blood cells. […] After the lysis of the white blood cells, 100 μl of the mixture was taken out and added to 900 μl of a PBS solution containing dissolved therein 1% BSA (trade name: “Sigma fraction V”, manufactured and sold under the brand of SIGMA™, U.S.A.). The resultant mixture was stirred by a Vortex mixer, and then 10 μl of the mixture was taken out and diluted 2,000-fold with 1% BSA/PBS solution. The resultant diluted mixture was subjected to a measurement by ELISA.
The outline of the ELISA is as follows. A 5 μg/ml PBS solution of a rabbit anti-human myeloperoxidase antibody (manufactured and sold by Calbiochem-Novabiochem Corporation, U.S.A.)(hereinafter, frequently referred to as “anti-MPO antibody”) was put into the wells of a Nunc Immuno Plate (manufactured and sold by Nalge Nunc International, Denmark) in an amount of 100 μl per well. The solution in each well was sealed and subjected to a reaction for 18 hours at 4° C. thereby immobilizing the primary antibody. The wells were washed with a washing solution (0.05% Tween™ 20/PBS) and then subjected to blocking for 1 hour at room temperature by using 200 μl of a blocking solution (1% BSA/PBS), and then washed twice with the washing solution. Then, the above-obtained diluted mixture (blood sample which had been treated with a surfactant and then diluted) was put in the wells in an amount of 100 μl per well, and subjected to a reaction for 2 hours at room temperature. Then, the wells were washed 3 times with the washing solution, and a 5 μg/ml solution of an anti-MPO antibody labeled with horseradish peroxidase (hereinafter referred to as “HRP”) was put in the wells in an amount of 100 μl per well, and subjected to a reaction for 1 hour at room temperature. As the above-mentioned HRP-labeled anti-MPO antibody, an anti-human MPO antibody (manufactured and sold by Calbiochem-Novabiochem Corporation, U.S.A.) which had been labeled with HRP Grade IV (manufactured and sold under the brand of SIGMA™, U.S.A.) was employed. The labeling was performed by the method described in Analytical Biochemistry, 132, 68-73 (1983). The wells were washed 5 times with the washing solution, and 100 1 μl of a just-prepared TMB solution (manufactured and sold by Kirkegaad & Perry Laboratories, U.S.A.) was added thereto to effect a color reaction. 2 Minutes after the start of the color reaction, 100 μl of a 1 N sulfuric acid solution (manufactured and sold by Nacalai Tesque, Inc., Japan) was added to the wells to thereby terminate the reaction. Then, the absorbance at 450 nm was measured by means of a plate reader (manufactured and sold by Bio-Rad Laboratories, U.S.A.). The measurement was conducted 3 times, and a mean value±standard deviation was obtained.

[3] = system: white blood cells in whole blood; conditions: nonionic surfactants, dependence on HLB value
Description: Blood collection, treatment with a surfactant, and ELISA were performed in the same manner as in Example 3 in order to measure the MPO-releasing effects of the below-mentioned various surfactants.
These surfactants were individually dissolved in purified water (manufactured and sold by Kyoei Seiyaku Co., Japan) so as to obtain 10% or 2% (w/v) aqueous solutions. Before use in the testing, each of the aqueous solutions was further diluted to obtain a 1% (w/v) aqueous solution, and the 1% (w/v) aqueous solution was used in the testing within 15 hours from the preparation thereof. As a control, purified water (manufactured and sold by Kyoei Seiyaku Co., Japan) was used.

[4] = Example 5 (Table 5): 500 μl blood + 500 μl 1% (w/v) surfactant solution, mean ± SD
[5] = Example 3 (Table 3): 500 μl blood + 500 μl 1% (w/v) surfactant solution, mean ± SD of 3
[6] = Example 4 (Table 4): 500 μl blood + 500 μl 1% (w/v) surfactant solution, mean ± SD
[7] = concentration of surfactant 0.05 % (w/v)
[8] = concentration of surfactant 0.10 % (w/v)
[9] = concentration of surfactant 0.20 % (w/v)
[10] = concentration of surfactant 0.30 % (w/v)
[11] = concentration of surfactant 0.50 % (w/v)
[12] = concentration of surfactant 1.00 % (w/v)
[13] = concentration of surfactant 2.00 % (w/v)
[14] = concentration of surfactant 5.00 % (w/v)
[15] = concentration of surfactant 10.00 % (w/v)

## CCCCCCCCCCCC[N+](C)(C)C.[Br-] [DTAB, n-Dodecyltrimethylammonium Bromide]
[1]; [4]
  MPO concentration of whole blood: 8.05 ± 0.64 µg/mL

## CCCCCCCCCCCCCCCC[N+](C)(C)C.[Br-] [HTAB, Hexadecyltrimethylammonium Bromide]
[1]; [5]
  MPO concentration of whole blood: 5.80 ± 1.41 µg/mL
[1]; [6]
  MPO concentration of whole blood: 9.58 ± 0.53 µg/mL
[1]; [4]
  MPO concentration of whole blood: 7.15 ± 2.69 µg/mL

## CCCCCCCCCCCCCCCC[N+](C)(C)C.[Cl-] [HTAC, Hexadecyltrimethylammonium Chloride]
[1]; [6]
  MPO concentration of whole blood: 10.93 ± 0.82 µg/mL
[1]; [4]
  MPO concentration of whole blood: 7.35 ± 0.28 µg/mL

## CCCCCCCCCCCC[n+]1ccccc1.[Cl-] [LPC, 1-Laurylpyridinium Chloride]
[1]; [6]
  MPO concentration of whole blood: 9.58 ± 1.39 µg/mL
[1]; [4]
  MPO concentration of whole blood: 7.57 ± 0.60 µg/mL

## CCCCCCCCCCCCCCCCCC[N+](C)(C)C.[Cl-] [OTAC, Octadecyltrimethylammonium Chloride]
[1]; [4]
  MPO concentration of whole blood: 7.47 ± 0.38 µg/mL

## CCCCCCCCCCCCCC[N+](C)(C)C.[Br-] [TTAB, Tetradecyltrimethylammonium Bromide]
[1]; [6]
  MPO concentration of whole blood: 9.33 ± 1.30 µg/mL
[1]; [4]
  MPO concentration of whole blood: 8.08 ± 0.11 µg/mL

## α-(4-Nonylphenyl)-ω-hydroxypoly(oxy-1,2-ethanediyl) [Nissan Nonion NS-208.5]
[1]; [5]
  MPO concentration of whole blood: 6.20 ± 1.51 µg/mL

## α-[4-(1,1,3,3,-Tetramethylbutyl)phenyl]-ω-hydroxypoly(oxy-1,2-ethanediyl) [Igepal ™ CA630]
[2]; [7]
  Release amount of MPO in whole blood: 0.103 ± 0.005 Abs. 450 nm
[2]; [8]
  Release amount of MPO in whole blood: 0.156 ± 0.009 Abs. 450 nm
[2]; [9]
  Release amount of MPO in whole blood: 0.205 ± 0.007 Abs. 450 nm
[2]; [10]
  Release amount of MPO in whole blood: 0.211 ± 0.008 Abs. 450 nm
[2]; [11]
  Release amount of MPO in whole blood: 0.249 ± 0.002 Abs. 450 nm
[2]; [12]
  Release amount of MPO in whole blood: 0.220 ± 0.008 Abs. 450 nm
[2]; [13]
  Release amount of MPO in whole blood: 0.208 ± 0.003 Abs. 450 nm
[2]; [14]
  Release amount of MPO in whole blood: 0.199 ± 0.018 Abs. 450 nm
[2]; [15]
  Release amount of MPO in whole blood: 0.227 ± 0.006 Abs. 450 nm
[1]; [5]
  MPO concentration of whole blood: 6.23 ± 1.42 µg/mL

## α-[4-(1,1,3,3,-Tetramethylbutyl)phenyl]-ω-hydroxypoly(oxy-1,2-ethanediyl) [Triton ™ X-114]
[2]; [7]
  Release amount of MPO in whole blood: 0.120 ± 0.026 Abs. 450 nm
[2]; [8]
  Release amount of MPO in whole blood: 0.131 ± 0.016 Abs. 450 nm
[2]; [9]
  Release amount of MPO in whole blood: 0.207 ± 0.004 Abs. 450 nm
[2]; [10]
  Release amount of MPO in whole blood: 0.198 ± 0.003 Abs. 450 nm
[2]; [11]
  Release amount of MPO in whole blood: 0.259 ± 0.007 Abs. 450 nm
[2]; [12]
  Release amount of MPO in whole blood: 0.240 ± 0.006 Abs. 450 nm
[2]; [13]
  Release amount of MPO in whole blood: 0.245 ± 0.015 Abs. 450 nm
[2]; [14]
  Release amount of MPO in whole blood: 0.239 ± 0.002 Abs. 450 nm
[2]; [15]
  Release amount of MPO in whole blood: 0.243 ± 0.005 Abs. 450 nm
[1]; [5]
  MPO concentration of whole blood: 7.44 ± 1.81 µg/mL
[3]
  Efficiency for releasing intrinsic MPO from the white blood cells (in words): high activity to release intrinsic MPO

— patent US6599713B1, “Method for quantitating leukocyte count in whole blood sample” (priority 1999, dated 2003)
